Results published in patent US10995091B2 (Proximagen, LLC, priority 2010, dated 2021).

Experiments:
[1] = target: T1, Human CXCR4 transfected HEK293 cells (Homo sapiens, UniProt P61073); assay: CXCR4 functional calcium assay (calcium flux FLIPR, antagonism of SDF1 response); assay type: cell-based; conditions: CXCR4 functional activity, antagonism of SDF1 (EC50 concentration), read-out: CXCR4 fKi
T1 construct: expressed in transfected cells; host or cells: HEK293
Procedure, shortened: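 Dose-dependent antagonism of the SDF1 response was read by FLIPR as Fluo-4 calcium signal (2 μM dye) in CXCR4-expressing human HEK293 cells, in HBSS with probenecid, BSA and HEPES at pH 7.4 and 37° C. Test compound was given before an EC50-level SDF1 challenge. Curves were then fitted.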

[2] = tested on: HIV-1IIIB (CXCR4-tropic) virus; assay: CXCR4-tropic HIV-1 attachment assay in MAGI-CCR5 cells (β-galactosidase reporter); assay type: cell-based; conditions: Human immunodeficiency virus 1, MAGI-CCR5, read-out: IC50, inhibition of attachment of CXCR4-tropic HIV-1
Method: Example 30 was tested in an HIV attachment assay, which detects compounds that block HIV-1IIIB (CXCR4-tropic) virus attachment to cells.
The CXCR4-tropic HIV-1 attachment assay uses MAGI-CCR5 cells that naturally express CXCR4 which were engineered to express high levels of CD4 and CCR5 and to contain one copy of the HIV-1 LTR promoter driving expression of the β-galactosidase gene upon HIV-1 Tat transactivation. Cells are incubated with Example 30 and the CXCR4-tropic virus HIV-1IIIB for 3 hours before washing to remove drug and unbound virus. Fresh media is added and the plates are incubated for 48 hours after which antiviral efficacy is measured as the inhibition of β-galactosidase reporter expression and cytotoxicity is monitored by MTS staining.

[3] = tested on: HIV-1IIIB (CXCR4-tropic); assay: HIV anti-viral assay in MAGI-CCR5 cells (β-galactosidase reporter); assay type: cell-based; conditions: Human immunodeficiency virus 1, 48 hours with compound and virus, read-out: IC50, HIV-1 antiviral activity
Method: Example 30 was also tested in an HIV antiviral assay that detects compounds that block HIV-1IIIB (CXCR4-tropic) replication via targets in the viral life cycle. The anti-viral assay uses MAGI-CCR5 cells that naturally express CXCR4 which were engineered to express high levels of CD4 and CCR5 and to contain one copy of the HIV-1 LTR promoter driving expression of the β-galactosidase gene upon HIV 1 Tat transactivation. Cells are incubated with Example 30 and the CXCR4-tropic virus HIV-1IIIB for 48 hours after which antiviral efficacy is measured as the inhibition of β-galactosidase reporter expression and cytotoxicity is monitored by MTS staining.

[4] = tested on: circulating white blood cells (WBC); assay: In vivo mobilization of white blood cells (WBC count in peripheral blood); conditions: C57BL/6 mice
Method: (§1) The study investigated the ability of Example 30 alone and in combination with G-CSF to induce in vivo mobilization of white blood cells in C57BL/6 mice, as well as hematopoietic progenitors from bone marrow to peripheral blood as assessed by the evaluation of the frequency of colony forming cell colonies (CFC). Peripheral blood samples from each test group were collected 1 hour post injection. The white blood cell count (WBC) was determined from the peripheral blood collected for each individual mouse. Clonogenic progenitors of the multipotential (CFU-GEMM) lineages were assessed. Peripheral blood cells were added to MethoCult® 3434 in triplicate cultures for plating (0.5-3×10^5 cells/dish). Cultures were incubated for 8 days at 37° C., 5% CO2 in humidified incubators. CFU-GEMM colony number was enumerated microscopically using an inverted microscope from appropriately plated culture dishes.

[5] = tested on: multipotential mixed hematopoietic progenitors (CFU-GEMM); assay: In vivo mobilization of hematopoietic progenitors, colony forming cell assay (CFU-GEMM) from peripheral blood; conditions: C57BL/6 mice, one hour after treatment, compared to G-CSF treatment alone
Method: as §1

[6] = tested on: haematopoietic stem cells; conditions: donors or patients; background statement; cited from earlier work

T1 sequence (P61073 whole entry): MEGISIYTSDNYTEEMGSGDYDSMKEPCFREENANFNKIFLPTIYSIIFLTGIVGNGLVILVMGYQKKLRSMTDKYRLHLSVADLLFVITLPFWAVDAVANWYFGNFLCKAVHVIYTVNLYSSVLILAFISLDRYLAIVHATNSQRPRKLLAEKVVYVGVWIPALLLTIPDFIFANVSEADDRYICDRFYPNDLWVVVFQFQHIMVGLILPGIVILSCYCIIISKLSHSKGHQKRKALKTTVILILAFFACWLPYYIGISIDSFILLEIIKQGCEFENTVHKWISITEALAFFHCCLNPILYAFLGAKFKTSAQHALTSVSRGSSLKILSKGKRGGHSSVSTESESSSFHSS

Structure (SMILES)	Ki [1]	other results
CC(C)N1CCC(N2CCCN(c3cccc(C(=O)Nc4ccncc4)n3)CC2)CC1 [Example 30, 6-{4-[1-(Propan-2-yl)piperidin-4-yl]-1,4-diazepan-1-yl}-N-(pyridin-4-yl)pyridine-2-carboxamide]	< 20 nM	IC50 [2]: 40 nM; IC50 [3]: 30 nM; circulating white blood cells (WBC) ([4]; 1 hour after treatment, compared to vehicle control group): significant increase; circulating white blood cells (WBC), in combination with G-CSF ([4]; after 1 hour, in combination with G-CSF, compared to G-CSF alone): significant increase; multipotential mixed hematopoietic progenitors (CFU-GEMM/ml), in combination with G-CSF [5]: significant increase
CCCCNC(=O)c1cccc(N2CCCN(CC3CN(C(C)C)CCO3)CC2)n1 (stereo not shown) [Example 250, N-Butyl-6-(4-{[4-(propan-2-yl)morpholin-2-yl]methyl}-1,4-diazepan-1-yl)pyridine-2-carboxamide]	20 to 100 nM	
O=C(Nc1ccncc1)c1cccc(N2CCCN(Cc3ccc(F)cc3Cl)CC2)n1 [Example 251, 6-{4-[(2-Chloro-4-fluorophenyl)methyl]-1,4-diazepan-1-yl}-N-(pyridin-4-yl)pyridine-2-carboxamide]	100 to 500 nM	
O=C(NCC1CC1)c1cccc(N2CCCN(CCCN3CCc4ccccc4C3)CC2)n1 [Example 252, N-(Cyclopropylmethyl)-6-{4-[3-(1,2,3,4-tetrahydroisoquinolin-2-yl)propyl]-1,4-diazepan-1-yl}pyridine-2-carboxamide]	500 to 1000 nM	
CC(C)NCC(O)CN1CCCN(c2cccc(C(=O)NCc3cccnc3)n2)CC1 (stereo not shown) [Example 254, 6-{4-[2-Hydroxy-3-(propan-2-ylamino)propyl]-1,4-diazepan-1-yl}-N-(pyridin-3-ylmethyl)pyridine-2-carboxamide]	100 to 500 nM	
CC(C)(C)C1CCC(N2CCCN(c3cccc(C(=O)NCc4cccnc4)n3)CC2)CC1 (stereo not shown) [Example 256, 6-[4-(4-tert-Butylcyclohexyl)-1,4-diazepan-1-yl]-N-(pyridin-3-ylmethyl)pyridine-2-carboxamide]	20 to 100 nM	
O=C(Nc1ccncc1)c1cccc(N2CCCN(C3CCC(N4CCCC4C(F)(F)F)CC3)CC2)n1 (stereo not shown) [Example 257, N-(Pyridin-4-yl)-6-(4-{4-[2-(trifluoromethyl)pyrrolidin-1-yl]cyclohexyl}-1,4-diazepan-1-yl)pyridine-2-carboxamide]	500 to 1000 nM	
O=C(NCC1CC1)c1cccc(N2CCCN(CCCNCc3ccccc3Cl)CC2)n1 [Example 258, 6-[4-(3-{[(2-Chlorophenyl)methyl]amino}propyl)-1,4-diazepan-1-yl]-N-(cyclopropylmethyl)pyridine-2-carboxamide]	100 to 500 nM	
N#Cc1cccc(N2CCCN(C3CCN(Cc4ccccc4Cl)CC3)CC2)n1 [Example 259, 6-(4-{1-[(2-Chlorophenyl)methyl]piperidin-4-yl}-1,4-diazepan-1-yl)pyridine-2-carbonitrile]	500 to 1000 nM	
Cc1ccnc(N2CCCN(C3CCN(Cc4ccccc4Cl)CC3)CC2)c1 [Example 264, 1-{1-[(2-Chlorophenyl)methyl]piperidin-4-yl}-4-(4-methylpyridin-2-yl)-1,4-diazepane]	100 to 500 nM	
O=C(NCC1CC1)c1csc(N2CCCN(C3CCN(Cc4ccccc4Cl)CC3)CC2)n1 [Example 265, 2-(4-{1-[(2-Chlorophenyl)methyl]piperidin-4-yl}-1,4-diazepan-1-yl)-N-(cyclopropylmethyl)-1,3-thiazole-4-carboxamide]	500 to 1000 nM	
Clc1ccccc1CN1CCC(N2CCCN(c3nccs3)CC2)CC1 [Example 267, 1-{1-[(2-Chlorophenyl)methyl]piperidin-4-yl}-4-(1,3-thiazol-2-yl)-1,4-diazepane]	100 to 500 nM	
Cc1cc(C(=O)NCC2CC2)nc(N2CCCN(C3CCN(Cc4ccccc4Cl)CC3)CC2)c1 [Example 268, 6-(4-{1-[(2-Chlorophenyl)methyl]piperidin-4-yl}-1,4-diazepan-1-yl)-N-(cyclopropylmethyl)-4-methylpyridine-2-carboxamide]	100 to 500 nM	
c1cc(CN2CCCNCCNCCCNCC2)ccc1CN1CCCNCCNCCCNCC1 [Mozobil]		success rate of stem cell mobilisation (sufficient yield) [6]: ~90%

The next lines start with results.

Ki [1]	Structure (SMILES)	other results
500 to 1000 nM	O=C(NCC1CC1)c1cccc(N2CCCN(CCCN3CCC(F)(F)C3)CC2)n1 [Example 253, N-(Cyclopropylmethyl)-6-{4-[3-(3,3-difluoropyrrolidin-1-yl)propyl]-1,4-diazepan-1-yl}pyridine-2-carboxamide]	
100 to 500 nM	c1cc(-c2ncc(C3CC3)[nH]2)nc(N2CCCN(C3CCC(N4CCCC4)CC3)CC2)c1 (stereo not shown) [Example 255, 1-[6-(4-Cyclopropyl-1H-imidazol-2-yl)pyridin-2-yl]-4-[4-(pyrrolidin-1-yl)cyclohexyl]-1,4-diazepane]	
500 to 1000 nM	OCc1cccc(N2CCCN(C3CCN(Cc4ccccc4Cl)CC3)CC2)n1 [Example 260, [6-(4-{1-[(2-Chlorophenyl)methyl]piperidin-4-yl}-1,4-diazepan-1-yl)pyridin-2-yl]methanol]	
100 to 500 nM	Clc1ccccc1CN1CCC(N2CCCN(c3ccccn3)CC2)CC1 [Example 261, 1-{1-[(2-Chlorophenyl)methyl]piperidin-4-yl}-4-(pyridin-2-yl)-1,4-diazepane]	
500 to 1000 nM	Cc1cccc(N2CCCN(C3CCN(Cc4ccccc4Cl)CC3)CC2)n1 [Example 262, 1-{1-[(2-Chlorophenyl)methyl]piperidin-4-yl}-4-(6-methylpyridin-2-yl)-1,4-diazepane]	
100 to 500 nM	Cc1ccc(N2CCCN(C3CCN(Cc4ccccc4Cl)CC3)CC2)nc1 [Example 263, 1-{1-[(2-Chlorophenyl)methyl]piperidin-4-yl}-4-(5-methylpyridin-2-yl)-1,4-diazepane]	
100 to 500 nM	Cc1cc(C(=O)NCCCn2ccnc2)nc(N2CCCN(C3CCN(Cc4ccccc4Cl)CC3)CC2)n1 [Example 266, 2-(4-{1-[(2-Chlorophenyl)methyl]piperidin-4-yl}-1,4-diazepan-1-yl)-N-[3-(1H-imidazol-1-yl)propyl]-6-methylpyrimidine-4-carboxamide]	
100 to 500 nM	O=C(NCC1CC1)c1ccnc(N2CCCN(C3CCN(Cc4ccccc4Cl)CC3)CC2)c1 [Example 269, 2-(4-{1-[(2-chlorophenyl)methyl]piperidin-4-yl}-1,4-diazepan-1-yl)-N-(cyclopropylmethyl)pyridine-4-carboxamide]	
100 to 500 nM	COc1ccc(C(=O)NCC2CC2)nc1N1CCCN(C2CCN(Cc3ccccc3Cl)CC2)CC1 [Example 270, 6-(4-{1-[(2-Chlorophenyl)methyl]piperidin-4-yl}-1,4-diazepan-1-yl)-N-(cyclopropylmethyl)-5-methoxypyridine-2-carboxamide]	
